Measured values published in BindingDB's records for PubMed 1325033 (Universit&Acute, 1992).
“And” between values parts separate entries of the source, which are not always exact repeats. Equal values may be shown once. Peptide text beside a SMILES is read from it.

Molecular target: T1, Pituitary adenylate cyclase-activating polypeptide (Rattus norvegicus, UniProt P13589)
T1 sequence (P13589 whole entry): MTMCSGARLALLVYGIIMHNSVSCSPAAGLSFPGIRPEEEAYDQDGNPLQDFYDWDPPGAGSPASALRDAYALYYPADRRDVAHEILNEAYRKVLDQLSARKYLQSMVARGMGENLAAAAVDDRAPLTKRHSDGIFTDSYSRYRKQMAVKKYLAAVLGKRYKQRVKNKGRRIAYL

Molecule	Ki
CCC(C)[C@H](NC(=O)CNC(=O)[C@H](CC(=O)O)NC(=O)[C@@H](Cc1ccccc1)NC(=O)[C@@H](N)Cc1cnc[nH]1)C(=O)N[C@@H](Cc1ccccc1)C(=O)N[C@H](C(=O)N[C@@H](CC(=O)O)C(=O)N[C@@H](CO)C(=O)N[C@@H](Cc1ccc(O)cc1)C(=O)N[C@@H](CO)C(=O)N[C@@H](CCCN=C(N)N)C(=O)N[C@@H](Cc1ccc(O)cc1)C(=O)N[C@@H](CCCN=C(N)N)C(=O)N[C@@H](CCCCN)C(=O)N[C@@H](CCC(N)=O)C(=O)N[C@@H](CCSC)C(=O)N[C@@H](C)C(=O)N[C@H](C(=O)N[C@@H](CCCCN)C(=O)N[C@@H](CCCCN)C(=O)N[C@@H](Cc1ccc(O)cc1)C(=O)N[C@@H](CC(C)C)C(=O)N[C@@H](C)C(=O)N[C@@H](C)C(=O)N[C@H](C(=O)N[C@@H](CC(C)C)C(N)=O)C(C)C)C(C)C)[C@@H](C)O (stereo partly drawn) [[D-Phe2]PACAP-27]	350 nM and 1000 nM
H-SNGIFTDSYSRYRKQMAVKKYLAAVL-NH2 [[Des-His1,Asn3]PACAP-27]	1500 nM and 5000 nM
CCC(C)[C@H](NC(=O)CN)C(=O)N[C@@H](Cc1ccccc1)C(=O)N[C@H](C(=O)N[C@@H](CC(=O)O)C(=O)N[C@@H](CO)C(=O)N[C@@H](Cc1ccc(O)cc1)C(=O)N[C@@H](CO)C(=O)N[C@@H](CCCN=C(N)N)C(=O)N[C@@H](Cc1ccc(O)cc1)C(=O)N[C@@H](CCCN=C(N)N)C(=O)N[C@@H](CCCCN)C(=O)N[C@@H](CCC(N)=O)C(=O)N[C@@H](CCSC)C(=O)N[C@@H](C)C(=O)N[C@H](C(=O)N[C@@H](CCCCN)C(=O)N[C@@H](CCCCN)C(=O)N[C@@H](Cc1ccc(O)cc1)C(=O)N[C@@H](CC(C)C)C(=O)N[C@@H](C)C(=O)N[C@@H](C)C(=O)N[C@H](C(=O)N[C@@H](CC(C)C)C(=O)NCC(=O)N[C@@H](CCCCN)C(=O)N[C@@H](CCCN=C(N)N)C(=O)N[C@@H](Cc1ccc(O)cc1)C(=O)N[C@@H](CCCCN)C(=O)N[C@@H](CCC(N)=O)C(=O)N[C@@H](CCCN=C(N)N)C(=O)N[C@H](C(=O)N[C@@H](CCCCN)C(=O)N[C@@H](CC(N)=O)C(=O)N[C@@H](CCCCN)C(N)=O)C(C)C)C(C)C)C(C)C)[C@@H](C)O (some centres not stated) [PACAP(4-38)] (HELM PEPTIDE1{G.[CCC(C)[C@H](N[*:1])C(=O)[*:2]].F.T.D.S.Y.S.R.Y.R.K.Q.M.A.V.K.K.Y.L.A.A.V.L.G.K.R.Y.K.Q.R.V.K.N.K.[am]}$$$$V2.0)	300 nM
CCC(C)[C@H](NC(=O)CNC(=O)[C@H](CC(=O)O)NC(=O)[C@@H](Cc1ccccc1)NC(=O)[C@@H](N)Cc1cnc[nH]1)C(=O)N[C@@H](Cc1ccccc1)C(=O)N[C@H](C(=O)N[C@@H](CC(=O)O)C(=O)N[C@@H](CO)C(=O)N[C@@H](Cc1ccc(O)cc1)C(=O)N[C@@H](CO)C(=O)N[C@@H](CCCN=C(N)N)C(=O)N[C@@H](Cc1ccc(O)cc1)C(=O)N[C@@H](CCCN=C(N)N)C(=O)N[C@@H](CCCCN)C(=O)N[C@@H](CCC(N)=O)C(=O)N[C@@H](CCSC)C(=O)N[C@@H](C)C(=O)N[C@H](C(=O)N[C@@H](CCCCN)C(=O)N[C@@H](CCCCN)C(=O)N[C@@H](Cc1ccc(O)cc1)C(=O)N[C@@H](CC(C)C)C(=O)N[C@@H](C)C(=O)N[C@@H](C)C(=O)N[C@H](C(=O)N[C@@H](CC(C)C)C(=O)NCC(=O)N[C@@H](CCCCN)C(=O)N[C@@H](CCCN=C(N)N)C(=O)N[C@@H](Cc1ccc(O)cc1)C(=O)N[C@@H](CCCCN)C(=O)N[C@@H](CCC(N)=O)C(=O)N[C@@H](CCCN=C(N)N)C(=O)N[C@H](C(=O)N[C@@H](CCCCN)C(=O)N[C@@H](CC(N)=O)C(=O)N[C@@H](CCCCN)C(N)=O)C(C)C)C(C)C)C(C)C)[C@@H](C)O (stereo partly drawn) [[D-Phe2]PACAP-38] (HELM PEPTIDE1{H.[dF].D.G.[CCC(C)[C@H](N[*:1])C(=O)[*:2]].F.T.D.S.Y.S.R.Y.R.K.Q.M.A.V.K.K.Y.L.A.A.V.L.G.K.R.Y.K.Q.R.V.K.N.K.[am]}$$$$V2.0)	5 nM and 40 nM
H-TDSYSRYRKQMAVKKYLAAVL-NH2 [PACAP(6-27)]	4000 nM and > 10000 nM
H-TDSYSRYRKQMAVKKYLAAVLGKRYKQRVKNK-NH2 [PACAP(7-38)]	25 nM and 150 nM
H-FTDSYSRYRKQMAVKKYLAAVL-NH2 [PACAP(5-27)]	300 nM and 2000 nM
